{"source": "paper PMC2981508", "about": "(Science (New York, N.Y.), 2009)", "key": {"[1]": {"test_system": "AR target genes PSA and TMPRSS2 in LNCaP/AR cells", "assay": "qRT-PCR of AR-dependent genes in LNCaP/AR cells", "format": "cell-based, human", "conditions": "androgen-depleted media 5% CSS, 8 hours, 1 and 10 μM"}, "[2]": {"test_system": "DU145 prostate cancer xenografts", "assay": "AR-negative DU145 prostate cancer xenografts", "set-up": "species or system mice", "conditions": "mouse, in vivo"}, "[3]": {"test_system": "AR recruitment to PSA enhancer and TMPRSS2 enhancer in LNCaP/AR cells", "assay": "Chromatin immunoprecipitation of AR in LNCaP/AR cells", "format": "cell-based, human"}, "[4]": {"test_system": "AR recruitment to PSA enhancer and TMPRSS2 enhancer in parental LNCaP cells", "assay": "Chromatin immunoprecipitation of AR in parental LNCaP cells", "format": "cell-based, human"}, "[5]": {"assay": "Plasma levels in LNCaP/AR tumor-bearing mice", "conditions": "10 mg/kg oral daily, 20 hours after the final dose on day 28"}, "[6]": {"test_system": "LNCaP/AR tumors", "assay": "LNCaP/AR xenograft model of CRPC in castrate male mice"}, "[7]": {"test_system": "PSA and TMPRSS2 in parental LNCaP cells", "assay": "Antagonism of R1881 induction of PSA and TMPRSS2 in parental LNCaP cells", "format": "cell-based, human"}, "[8]": {"test_system": "VCaP cells", "assay": "VCaP cell proliferation", "format": "cell-based, human", "conditions": "1 and 10 μM, media containing FBS"}, "[9]": {"test_system": "VCaP cells", "assay": "VCaP apoptosis", "format": "cell-based, human", "conditions": "10 μM, 1 or 3 days, PARP cleavage"}, "[10]": {"test_system": "DU145 human prostate cancer cells", "assay": "Growth of AR-negative DU145 cells in vitro", "format": "cell-based"}, "[11]": {"test_system": "serum PSA", "assay": "Phase I/II clinical trial in men with CRPC", "format": "in vivo, human"}, "[12]": {"test_system": "AR", "conditions": "cited from earlier work"}, "[13]": {"test_system": "VP16-AR fusion protein", "format": "cell-based", "conditions": "Cos-7 cells, 24 hours"}}}
{"smiles": "CC(O)(CS(=O)(=O)c1ccc(F)cc1)C(=O)Nc1ccc(C#N)c(C(F)(F)F)c1", "note": "(stereo not drawn) [bicalutamide, reference compound]", "values": [{"measurement": "Expression of AR target genes PSA and TMPRSS2 (agonist activity)", "setting": "[1]", "result": "induced"}, {"measurement": "growth of AR-negative DU145 xenografts", "setting": "[2]", "result": "neither bicalutamide nor RD162 impaired the growth"}, {"measurement": "AR recruitment to PSA enhancer and TMPRSS2 enhancer", "setting": "[3]", "result": "promoted AR recruitment"}, {"measurement": "AR recruitment to PSA enhancer and TMPRSS2 enhancer", "setting": "[4]", "result": "only R1881 promoted recruitment"}, {"measurement": "Plasma levels (mean)", "setting": "[5]", "result": 40, "unit": "µM"}, {"measurement": "Plasma levels in all mice", "setting": "[5]", "result": "exceeded 25 μM"}, {"measurement": "Tumors progressed on treatment (of 12)", "setting": "[6]; 10 mg/kg oral daily, 28 days", "result": "seven tumors"}, {"measurement": "Tumors regressed (12 tumors per group)", "setting": "[6]; 10 mg/kg oral daily, 28 days", "result": "one tumor regressed by 50%"}, {"measurement": "Tumors with stable disease (of 12)", "setting": "[6]; 10 mg/kg oral daily, 28 days", "result": "four tumors"}, {"measurement": "increase in tumor volume of progressing tumors", "setting": "[6]; 10 mg/kg oral daily, 28 days", "result": "up to 5 fold"}, {"measurement": "Median time to tumor progression", "setting": "[6]; continual 10 mg/kg oral daily treatment", "result": 35, "unit": "days"}]}
{"smiles": "CNC(=O)c1ccc(N2C(=S)N(c3ccc(C#N)c(C(F)(F)F)c3)C(=O)C2(C)C)cc1F", "note": "[MDV3100]", "values": [{"measurement": "Expression of AR target genes PSA and TMPRSS2 (agonist activity)", "setting": "[1]", "result": "do not have agonist activity"}, {"measurement": "Antagonism of induction of PSA and TMPRSS2 by R1881", "setting": "[7]", "result": "antagonized induction"}, {"measurement": "Growth of VCaP cells", "setting": "[8]", "result": "suppressed growth"}, {"measurement": "Apoptosis in VCaP cells", "setting": "[9]", "result": "induced apoptosis"}, {"measurement": "Growth suppression in AR-negative DU145 cells", "setting": "[10]", "result": "not observed"}, {"measurement": "AR recruitment to PSA enhancer and TMPRSS2 enhancer", "setting": "[3]", "result": "Neither RD162 nor MDV3100 recruited AR"}, {"measurement": "AR recruitment to PSA enhancer and TMPRSS2 enhancer", "setting": "[4]", "result": "Neither RD162 nor MDV3100 recruited AR"}, {"measurement": "Patients with sustained decline in serum PSA levels for at least 12 weeks (of 30)", "setting": "[11]; 30 mg or 60 mg daily oral", "result": "Twenty-two"}, {"measurement": "Tolerability", "setting": "[11]; 30 mg or 60 mg daily oral", "result": "well tolerated"}, {"measurement": "patients remaining on study longer than 25 weeks (of 30)", "setting": "[11]; 30 mg or 60 mg daily oral", "result": 11, "unit": "patients"}, {"measurement": "Percent of patients with sustained declines (by >50 percent) in serum PSA", "setting": "[11]; first 30 patients", "result": 43, "unit": "%"}, {"measurement": "Tumor responses", "setting": "[6]; MDV3100 treatment (fig. S5)", "result": "Tumor responses were also observed"}]}
{"smiles": "CC1(C)C(=O)N(c2ccc(C#N)c(C(F)(F)F)c2)C(=S)N1CCCCO", "note": "[RU59063]", "values": [{"measurement": "affinity for AR, fold reduced compared to testosterone", "setting": "[12]", "result": 3, "unit": "fold"}]}
{"smiles": "C[C@]1(O)CC[C@H]2[C@@H]3CCC4=CC(=O)CCC4=C3C=C[C@@]21C", "note": "[R1881, reference compound]", "values": [{"measurement": "AR recruitment to PSA enhancer and TMPRSS2 enhancer", "setting": "[3]", "result": "promoted AR recruitment"}, {"measurement": "AR recruitment to PSA enhancer and TMPRSS2 enhancer", "setting": "[4]", "result": "only R1881 promoted recruitment"}, {"measurement": "Activation of VP16-AR", "setting": "[13]", "result": "activated VP16-AR"}]}
